Measurements from US9018371B2, “Adenosine derivatives, method for the synthesis thereof, and the pharmaceutical compositions for the prevention and treatment of the inflammatory diseases containing the same as an active ingredient” (FM Therapeutics Co., Ltd., priority 2007, dated 2015).
Values belong to the compound of their own block, whether it stands above or below them.

Experiments:
[1] = target: human A3 adenosine receptor (hA3 AR) (Homo sapiens (Human), UniProt P0DMS8); assay: Binding affinity for human A3 adenosine receptor ([125I]AB-MECA, CHO cells); conditions: for Ki: nM ± SEM, [125I]AB-MECA, CHO cells
[2] = test system: TPA-induced inflammation of the mouse ear; assay: Anti-inflammatory activity, TPA-induced mouse ear inflammation; format: in vivo, ICR mice; conditions: TPA-treated ear; for anti-inflammatory activity relative to Examples 2 to 4, on the basis of inhibition percentage: 0.5% in acetone, ICR mice (FIG. 3); for percentage of inflammation inhibition: ICR mice, 24 hrs after TPA
Procedure: The adenosine derivatives of the present invention were examined for anti-inflammatory activity in the following animal test. Seven-week-old male ICR mice were treated with TPA (12-O-tetradecanoylphorbol 13-acetate, 20 μl) in the right ear. […] Hydrocortisone was used at the same concentration as a control.
6 hrs after treatment with TPA, the mice were secondarily treated with the adenosine derivatives of the present invention. 24 hrs after TPA treatment, test animals were euthanized using a cervical dislocation method. Samples were obtained from the right ear using a 6 mm diameter punch. The activity was observed by measuring the ear sample using a microbalance. Percentages of inhibition were calculated using the following Equation 1. The compositions and amounts used in these experiments are summarized in Tables 2 to 5 and the anti-inflammatory activities thereof are shown in FIGS. 2 to 5.

[3] = Toxicity assay in animals (abdominal administration, 24 hrs observation); conditions: 20 mg/kg, 10 mg/kg and 1 mg/kg abdominally, observation for 24 hrs
[4] = target: human A2B adenosine receptor (Homo sapiens (Human), UniProt P29275); assay: Agonist or antagonist activity on human A2B adenosine receptor
[5] = target: human A3 adenosine receptor (Homo sapiens (Human), UniProt P0DMS8); assay: Antagonism of Cl-IB-MECA and cAMP inhibition in CHO cells expressing human A3 adenosine receptor; format: cell-based; conditions: various concentrations
[6] = target: human A2A adenosine receptor (hA2A) (Homo sapiens (Human), UniProt P29274); assay: Binding affinity for human A2A adenosine receptor ([3H]CGS-21680, HEK 293 cell); conditions: nM ± SEM
[7] = target: human A1 adenosine receptor (hA1) (Homo sapiens (Human), UniProt P30542); assay: Binding affinity for human A1 adenosine receptor ([3H]CCPA, CHO cells); conditions: nM ± SEM
[8] = target: rat A3 adenosine receptor (Rattus norvegicus (Rat), UniProt P28647); assay: Binding affinity for rat A3 adenosine receptor expressed in CHO cells
[9] = 0.5% in distilled water:acetone (1:4)

Sequence of human A3 adenosine receptor (hA3 AR) (P0DMS8 whole entry): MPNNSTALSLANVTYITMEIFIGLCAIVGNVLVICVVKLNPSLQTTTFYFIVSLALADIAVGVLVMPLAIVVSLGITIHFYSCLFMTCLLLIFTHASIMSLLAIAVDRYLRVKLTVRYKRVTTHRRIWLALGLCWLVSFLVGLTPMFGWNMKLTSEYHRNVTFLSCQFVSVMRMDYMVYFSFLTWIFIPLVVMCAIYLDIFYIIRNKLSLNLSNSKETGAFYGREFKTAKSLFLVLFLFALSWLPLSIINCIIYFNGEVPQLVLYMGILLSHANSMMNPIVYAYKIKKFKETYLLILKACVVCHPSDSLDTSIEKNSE
Sequence of human A2A adenosine receptor (hA2A) (P29274 whole entry): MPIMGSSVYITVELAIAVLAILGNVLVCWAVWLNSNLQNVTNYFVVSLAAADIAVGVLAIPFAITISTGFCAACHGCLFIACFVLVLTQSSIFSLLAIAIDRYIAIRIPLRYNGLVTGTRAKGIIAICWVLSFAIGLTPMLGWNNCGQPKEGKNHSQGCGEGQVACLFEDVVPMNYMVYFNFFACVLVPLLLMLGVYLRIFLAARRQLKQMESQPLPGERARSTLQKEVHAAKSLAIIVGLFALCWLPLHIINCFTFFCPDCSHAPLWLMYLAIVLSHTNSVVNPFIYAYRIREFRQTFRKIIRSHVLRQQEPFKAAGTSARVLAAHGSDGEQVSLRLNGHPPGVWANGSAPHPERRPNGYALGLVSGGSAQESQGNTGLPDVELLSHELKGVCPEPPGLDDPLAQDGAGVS
Sequence of human A1 adenosine receptor (hA1) (P30542 whole entry): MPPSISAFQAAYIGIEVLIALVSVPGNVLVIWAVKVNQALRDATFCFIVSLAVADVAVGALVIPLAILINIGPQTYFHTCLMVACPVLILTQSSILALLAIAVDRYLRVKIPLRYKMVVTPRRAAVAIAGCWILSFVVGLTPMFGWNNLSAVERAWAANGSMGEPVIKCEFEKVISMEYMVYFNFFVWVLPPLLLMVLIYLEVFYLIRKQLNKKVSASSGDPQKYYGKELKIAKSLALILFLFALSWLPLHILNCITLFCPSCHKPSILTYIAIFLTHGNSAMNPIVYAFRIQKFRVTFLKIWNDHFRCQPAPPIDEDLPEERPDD
Sequence of human A3 adenosine receptor (P0DMS8 whole entry): as the sequence (P0DMS8 whole entry) above
Sequence of rat A3 adenosine receptor (P28647 whole entry): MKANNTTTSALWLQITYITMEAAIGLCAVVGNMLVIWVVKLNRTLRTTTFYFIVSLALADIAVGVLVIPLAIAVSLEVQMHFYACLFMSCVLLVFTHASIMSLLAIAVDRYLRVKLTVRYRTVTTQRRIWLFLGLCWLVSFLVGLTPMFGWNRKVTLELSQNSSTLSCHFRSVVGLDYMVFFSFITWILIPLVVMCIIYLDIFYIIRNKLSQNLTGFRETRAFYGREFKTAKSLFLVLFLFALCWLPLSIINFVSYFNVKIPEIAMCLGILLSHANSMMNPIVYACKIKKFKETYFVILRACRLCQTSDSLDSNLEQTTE
Sequence of human A2B adenosine receptor (P29275 whole entry): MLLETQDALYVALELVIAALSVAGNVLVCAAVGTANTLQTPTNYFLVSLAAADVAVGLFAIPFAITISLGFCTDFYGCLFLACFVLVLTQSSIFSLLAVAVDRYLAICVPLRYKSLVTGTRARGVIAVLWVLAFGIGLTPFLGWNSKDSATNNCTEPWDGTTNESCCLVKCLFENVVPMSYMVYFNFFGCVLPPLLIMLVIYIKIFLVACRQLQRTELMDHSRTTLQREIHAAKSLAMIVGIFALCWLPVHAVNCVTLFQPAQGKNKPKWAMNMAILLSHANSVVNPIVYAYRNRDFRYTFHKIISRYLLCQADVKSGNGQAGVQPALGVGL

Ki [6]: 1600 ± 135 nM | Ki [1]: 25.8 ± 6.3 nM | melting point: 198.7 to 199.7 °C
SMILES: OC1CS[C@@H](n2cnc3c(NCc4ccccc4Cl)nc(Cl)nc32)C1O (stereo in doubt) [Example 5, (2R,3R,4S)-2-(2-Chloro-6-(2-chlorobenzylamino)-9H-purin-9-yl)tetrahydrothiophen-3,4-diol]
percentage of inflammation inhibition [2, 9]: 17%

Ki [7]: 1430 ± 420 nM | Ki [6]: 1260 ± 330 nM | Ki [1]: 7.3 ± 0.6 nM
SMILES: OC1CS[C@@H](n2cnc3c(NCc4cccc(F)c4)ncnc32)C1O (stereo in doubt) [Example 11, (2R,3R,4S)-2-(6-(3-fluorobenzylamino)-9H-purin-9-yl)tetrahydrothiophen-3,4-diol]

binding affinity for hA3 AR (in words) [1]: high binding affinity and selectivity | Ki [1]: 13 ± 6.9 nM | melting point: 181.5 to 181.7 °C
SMILES: OC1CO[C@@H](n2cnc3c(NCc4cccc(Br)c4)nc(Cl)nc32)C1O (stereo in doubt) [Example 15, (2R,3R,4R)-2-(6-(3-Bromobenzylamino)-2-chloro-9H-purin-9-yl)tetrahydrofuran-3,4-diol]
percentage of inflammation inhibition ([2]; 0.5% in DMSO:acetone (1:9)): 59%

Ki [8]: 3.89 ± 1.15 nM
SMILES: O[C@@H]1[C@H](O)CS[C@H]1n1cnc2c(NCc3cccc(I)c3)nc(Cl)nc21 [Example 4, (2R,3R,4S)-2-(2-Chloro-6-(3-iodobenzylamino)-9H-purin-9-yl)tetrahydrothiophen-3,4-diol]

Ki [1]: 3.69 ± 0.25 nM
SMILES: CNc1nc(Cl)nc2c1ncn2[C@@H]1SC[C@H](O)[C@@H]1O [Example 10, 2-(2-Chloro-6-methylamino-purin-9-yl)(2R,3S,4R)-tetrahydrothiophen-3,4-diol]

binding affinity for hA3 AR (in words) [1]: high binding affinity and selectivity | Ki [1]: 42.9 ± 8.9 nM | melting point: 195.5 to 195.8 °C
SMILES: OC1CO[C@@H](n2cnc3c(NCc4cccc(I)c4)nc(Cl)nc32)[C@H]1O (stereo partly drawn) [Example 16, (2R,3R,4R)-2-(6-(3-iodobenzylamino)-2-chloro-9H-purin-9-yl)tetrahydrofuro-3,4-diol]
percentage of inflammation inhibition ([2]; 0.5% in DMSO:acetone (1:9)): 79%

The next lines start with the compound.

SMILES: OC1CS[C@@H](n2cnc3c(NCc4cccc(F)c4)nc(Cl)nc32)C1O (stereo in doubt) [Example 1, (2R,3R,4S)-2-(2-Chloro-6-(3-fluorobenzylamino)-9H-purin-9-yl)tetrahydrothiophen-3,4-diol]
Ki [1]: 7.4 ± 1.3 nM | anti-inflammatory activity relative to Examples 2 to 4, on the basis of inhibition percentage [2]: four or more times that of the compounds of Examples 2 to 4 | melting point: 183.2 to 183.5 °C

SMILES: OC1CS[C@@H](n2cnc3c(NCc4cccc(Cl)c4)nc(Cl)nc32)C1O (stereo in doubt) [Example 2, (2R,3R,4S)-2-(2-Chloro-6-(3-chlorobenzylamino)-9H-purin-9-yl)tetrahydrothiophen-3,4-diol]
mortality [3]: None of the members of the three groups died | weight gain or feed intake versus control group [3]: No difference in weight gain or feed intake

SMILES: OC1CS[C@@H](n2cnc3c(NCc4cccc(Br)c4)nc(Cl)nc32)C1O (stereo in doubt) [Example 3, (2R,3R,4S)-2-(2-Chloro-6-(3-bromobenzylamino)-9H-purin-9-yl)tetrahydrothiophen-3,4-diol]
Ki [1]: 8.99 ± 5.17 nM | melting point: 184 to 185 °C

SMILES: OC1CS[C@@H](n2cnc3c(NCc4cccc(I)c4)nc(Cl)nc32)C1O (stereo in doubt) [Example 4, (2R,3R,4S)-2-(2-Chloro-6-(3-iodobenzylamino)-9H-purin-9-yl)tetrahydrothiophen-3,4-diol]
agonist or antagonist on human A2B adenosine receptor (in words) [4]: not observed as an agonist or antagonist | inhibition of the agonist effect of Cl-IB-MECA (in words) [5]: inhibited in a dose-dependent manner

SMILES: COc1ccc(Cl)cc1CNc1nc(Cl)nc2c1ncn2[C@@H]1SCC(O)C1O (stereo in doubt) [Example 6, (2R,3R,4S)-2-(2-Chloro-6-(5-chloro-2-methoxybenzylamino)-9H-purin-9-yl)tetrahydrothiophen-3,4-diol]
Ki [6]: 4020 ± 1750 nM | Ki [1]: 12.7 ± 3.7 nM | anti-inflammatory activity relative to Examples 2 to 4, on the basis of inhibition percentage [2]: four or more times that of the compounds of Examples 2 to 4 | melting point: 188.8 to 189.8 °C

SMILES: COc1ccccc1CNc1nc(Cl)nc2c1ncn2[C@@H]1SCC(O)C1O (stereo in doubt) [Example 7, (2R,3R,4S)-2-(2-chloro-6-(2-methoxybenzylamino)-9H-purin-9-yl)tetrahydrothiophen-3,4-diol]
percentage of inflammation inhibition [2, 9]: 34% | melting point: 188 °C

SMILES: OC1CS[C@@H](n2cnc3c(NCc4cccc5ccccc45)nc(Cl)nc32)C1O (stereo in doubt) [Example 8, (2R,3R,4S)-2-(2-Chloro-6-(naphthalen-1-ylmethylamino)-9H-purin-9-yl)tetrahydrothiophen-3,4-diol]
Ki [1]: 24.8 ± 8.1 nM | percentage of inflammation inhibition [2, 9]: 53% | melting point: 226.3 °C (dec.)

SMILES: O=C(O)c1cccc(CNc2nc(Cl)nc3c2ncn3[C@@H]2SCC(O)C2O)c1 (stereo in doubt) [Example 9, 3-((2-chloro-9-((2R,3R,4S)-3,4-dihydroxytetrahydrothiophen-2-yl)-9H-purine-6-ylamino)methyl)benzoic acid]
melting point: 254 to 256.99 °C

SMILES: OC1CS[C@@H](n2cnc3c(NCc4cccc(Cl)c4)ncnc32)C1O (stereo in doubt) [Example 12, (2R,3R,4S)-2-(6-(3-Chlorobenzylamino)-9H-purin-9-yl)tetrahydrothiophen-3,4-diol]
Ki [7]: 860 ± 210 nM | Ki [6]: 440 ± 110 nM | Ki [1]: 1.5 ± 0.4 nM

SMILES: OC1CS[C@@H](n2cnc3c(NCc4cccc(Br)c4)ncnc32)C1O (stereo in doubt) [Example 13, (2R,3R,4S)-2-(6-(3-bromobenzylamino)-9H-purin-9-yl)tetrahydrothiophen-3,4-diol]
Ki [7]: 790 ± 190 nM | Ki [6]: 420 ± 32 nM | Ki [1]: 6.8 ± 3.4 nM | melting point: 183 to 184 °C

SMILES: OC1CS[C@@H](n2cnc3c(NCc4cccc(I)c4)ncnc32)C1O (stereo in doubt) [Example 14, (2R,3R,4S)-2-(6-(3-Iodobenzylamino)-9H-purin-9-yl)tetrahydrothiophen-3,4-diol]
melting point: 198.8 to 199.8 °C
